In one series the test system is B16 melanoma cells. As to the kind of experiment: Cytotoxic (CTL) activity of spleen cells against autologous tumour cells, 51Cr-release assay.
In series [1] the test system is spleen cells expressing CD4, CD8, and NK1.1. Kind of series: Flow cytometric analysis of spleen cell subsets. The note with it: B16 tumour-bearing mice, day 14, mean ± S.E.M. It counts as in vivo, C57BL/6 mice. The protocol:
Splenocytes from individual mice were analysed by flow cytometry. The following monoclonal antibodies were used for double fluorescence analysis of spleen cell subsets: fluorescein (FITC)-conjugated anti-mouse NK1.1 PE (PharMingen, San Diego, Calif.), PE-conjugated anti-mouse CD4 (PharMingen), FITC-conjugated anti-mouse CD8 (PharMingen). Approximately 1×10^6 spleen cells were resuspended in […] of CM and staining was performed at 4° C. for 30 minutes. Cells were then washed twice in PBS containing 0.02% sodium azide and flow cytometric analysis was performed using a FACscan flow cytometer (Becton Dickinson).
Fluorescence data were collected using a 488 nm excitation wavelength from a 15 mW air-cooled argon-ion laser. […] A minimum of 5,000 events were collected on each sample and acquired in list mode by a Hewlett Packard 9000 computer. To exclude dead cells, debris, non lymphoid cells, and cell aggregates, data collection was gated on live spleen lymphocytes by forward and side angle scatter. Data are represented as the percentage of positive cells over the total number of cells counted.
(A flow cytometer gives signals particle by particle.)

Another series deals with YAC-1 cells. Kind of series: NK activity of spleen cells, 4-hour 51Cr-release assay. The note with it: day 14.
Series [2] has as its system PROb subcutaneous colon tumors. It counts as in vivo, BDIX rats. As to conditions: rat, in vivo.
Another series deals with B16 melanoma. Kind of series: B16 melanoma model: tumour growth and survival time. It counts as in vivo, C57BL/6 mice. As to conditions: CY 200 mg/Kg i.p. day 7; OM-174 1 mg/kg i.p. days 8, 13, 18, 23, 28; vs untreated controls. The protocol: Four to six weeks-old male C57BL/6 mice were purchased from Charles River (Calco, Corno, Italy). B 16 melanoma tumour cells were serially passaged subcutaneously (s.c.) in syngenic mice. On day 0, mice were injected s.c. in the right flank with 2×10^5 B16 melanoma cells. Tumour growth was measured daily in each mouse, using calipers, and mean tumour diameter per day was calculated. At day 7 after tumour injection, all mice with s.c. tumours of about 2-3 mm diameter were divided into different experimental groups, i.e. phosphate buffered saline (PBS)-injected control 3, CY, OM-174 or CY with OM-174.
Cyclophosphamide (Sigma, St. Louis, Mo.) was dissolved at 20 mg/ml in PBS immediately before use, and 0.2 ml per mouse were injected intraperitoneally. Each treated animal received a single dose of 200 mg/Kg CY on day 7.
Kaplan-Meier method was used to estimate the survivor functions and Log-rank test was performed for testing the homogeneity of survival functions across the four groups (control, CY, OM-174, CY+OM-174).
Tumor growth was analyzed by T-test for unpaired data.

The test system of series [3] is PROb cells. Kind of series: PROb i.p. rat colon cancer model, 5-FU combined with OM-174: carcinomatosis classes, ascites, survival. It counts as in vivo. The note with it: day 61. The protocol:
On day 0 (D0), 106 PROb cells were injected i.p. to each rat. 5-FU was administered i.p. at the dose of 30 mg/kg on days 7 and 14. OM-174 was injected at the dose of 1 mg/kg i.v. from day 21 three times a week for a total of 10 injections.
All rats (controls and treated) were sacrificed by CO2 on day 61. The efficacy of the treatment was determined by read-outs such as survival (FIG. 5) and measure of the classes of cancer given depending on the number and the size of the nodules, and also by ascites measurements. Carcinomatoses were evaluated blindly. As it is impossible to measure the volume of a carcinomatosis, they were classified according to the number and diameter of the nodules: • Class 0: no visible nodule • Class 1: some countable nodules with a diameter from 0.1 to 0.3 cm • Class 2: many uncountable nodules with a diameter from 0.1 to 0.3 cm • Class 3: some nodules with a diameter of 1 cm invade the peritoneal cavity • Class 4: the cavity is completely invaded by tumor masses of several cm.
The ascite volume was measured by double weights of the rats.

Series [4] has as its system PROb cells. As to the kind of experiment: BDIX/PROb peritoneal carcinomatosis, cisplatin combined with OM-174, survival. It counts as in vivo, BDIX rats. As to conditions: cisplatin 3 mg/kg i.v. day 21; OM-174 1 mg/kg i.v., 5 injections every 5th day from day 28 or 35. On the procedure: Colon cancer PROb cells were originally obtained from a tumor of a BDIX rat induced by 1,2-dimethylhydrazine.
The BDIX strain of rats was established in 1937 by H. Druckrey. Nowadays these rats come from Iffa-Credo (L'Asbresle, France).
BDIX rats, 4 months±1 month at the beginning of the experiment, 7 animals/group, received i.p. cultured syngenic PROb cells (i.p) on day 0. Cisplatin (3 mg/kg) was injected i.v. on day 21, and OM-174 treatment (1 mg/kg, 5 injections i.v. in the penile vein every 5th day) started either on days 28 or 35. Survival was followed until day 72 in the example presented here.
In this example, cisplatin (3 mg/kg i.v) is given on day 21. A further immunostimulating treatment with OM-174 is started only on day 28 or 35 (1 mg/kg, 5 injections i.v. every 5th day).

The mark [5] stands for this setting: positive cells vs total spleen cells.

Entries after “also recorded” stand apart in the source; their conditions may differ.

Source text for B16 melanoma cells: (§1) Mice were sacrificed by cervical dislocation on day 14 after tumour inoculation.
(§2) In vitro-passaged YAC-1 cells (a Moloney-virus induced mouse T cells lymphoma of A/SN origin), and in vivo-passaged B16 melanoma cells, were used as target cells in a chromium-release assay. B16 melanoma cells were obtained from tumour-bearing mice, seeded in cell-culture flasks (Falcon, Becton Dickinson and Co., Plymouth, England) and used within the first week of culture in CM. B16 and YAC-1 cell lines were obtained from the laboratory collection, and were originally obtained from the American Tissue Culture Collection (ATCC).
(§3) The cytotoxic activity of the effector cells collected from individual mice was measured by a standard 4-hour ^51Cr-release assay. Briefly, target cells were harvested from the cultures, washed twice, resuspended at 5×10^6 cells in 0.9 ml of CM and labelled with 100 μCi (^51Cr) sodium chromate (New England Nuclear, Boston, Mass.) for 1 hour at 37° C. in a 5% CO2 incubator. […] The effector cells suspension was added to quadruplicate wells to give three E/T ratios (i.e. 100:1, 50:1, 25:1) in a final volume of 200 μl per well. The plates were then incubated for 4 hours at 37° C. in a 5% CO2 incubator, 100 μl of supernatants were collected from each well, and the radioactivity was measured using a gamma counter. Total mean cytotoxicity±S.E.M. were calculated from quadruplicate cpm values from individual spleens.
It has been tested from spleen cells from normal and tumour-bearing mice for specific cytotoxic activity against autologous tumour cells using in-vivo passaged B16 melanoma cells as target.
Source text for YAC-1 cells: as §1, §2, §3
It has been therefore measured the cytotoxic activity of splenocytes against NK-sensitive (YAC-1) tumour cells.

As for `O=P1(N(CCCl)CCCl)NCCCO1` (stereo not shown) [CY, cyclophosphamide, reference compound], the CTL % cytotoxicity in the series with B16 melanoma cells (B16 tumour-bearing mice, day 14, E/T ratio 25:1, CY 200 mg/Kg i.p. day 7, OM-174 1 mg/kg i.p. days 8 and 13, mean ± S.E.) came out at 2.63 ± 0.2%. For the same compound, the “Cytotoxic activity against autologous tumour cells (in words)” value in the series on B16 melanoma cells (tumour-bearing mice) is listed as “not to be increased”. Further, the “NK (%)” value in series [1] (NK1.1 positive cells vs total spleen cells) is 4 ± 0.5%. Further, in series [1] (setting [5]), the “CD4^+ (%)” value was 21.7 ± 1.8% and the “CD8^+ (%)” value came out at 6.4 ± 1.4%. The “NK activity (in words)” value in the series with YAC-1 cells (B16 melanoma-injected mice) is on record as “decreased NK activity”. Also, in the series with YAC-1 cells (B16 tumour-bearing mice, E/T ratio 25:1, CY 200 mg/Kg i.p. day 7, OM-174 1 mg/kg i.p. days 8 and 13, mean ± S.E.), the NK % cytotoxicity turned out to be 2.3 ± 0.4%. Further, in series [2], the “Antitumoral effect of single treatment on large, established PROb tumors (in words, FIG. 3)” value is “transient regression; also recorded: unable to cure animals” and the “Number of cured animals/total number of animals” value is 0/6. For the same compound, in the series with B16 melanoma, the “B16 tumour growth (in words, FIG. 1)” value is on record as “inhibited slightly but significantly” and the “Survival time (MST) of mice (in words, FIG. 2)” value is “increased slightly but significantly”.
In the case of `O=c1[nH]cc(F)c(=O)[nH]1` [5-FU, 5-Fluorouracil, reference compound], the “Number of rats in carcinomatosis class 0” value in the series with PROb cells [3] (Class 0: no visible nodule, 5-FU 30 mg/kg i.p. days 7 and 14, OM-174 1 mg/kg i.v. from day 21, 10 injections) is 2. For the same compound, the “Number of rats in carcinomatosis class 1” value in the series on PROb cells [3] (Class 1: some countable nodules with a diameter from 0.1 to 0.3 cm) came out at 0. The “Number of rats in carcinomatosis class 2” value in the series on PROb cells [3] (Class 2: many uncountable nodules with a diameter from 0.1 to 0.3 cm) was determined as 0. Also, the “Number of rats in carcinomatosis class 3” value in the series on PROb cells [3] (Class 3: some nodules with a diameter of 1 cm invade the peritoneal cavity) came out at 0. For the same compound, the “Number of rats in carcinomatosis class 4” value in the series with PROb cells [3] (Class 4: the cavity is completely invaded by tumor masses of several cm) was determined as 8. In addition, in the series with PROb cells [3], the “Carcinomatosis classes versus Control group (Mann-Whitney test)” value was “No significant difference”. Also, in the series on PROb cells [3] (measured by double weights of the rats), the Ascites is 44 mL.
`N.N.[Cl][Pt][Cl]` [Cisplatin, cisplatin, reference compound]: the “Antitumour activity / survival (in words, FIG. 4)” value in the series with PROb cells [4] is reported as “only partial efficacy”.
